# Assay results from patent US6599927B2, “Use of an H+, K+-ATPase inhibitor in the treatment of Widal's Syndrome” (AstraZeneca AB, priority 1996, dated 2003).
# “Also recorded” adds a separate entry of the source.
# Tested on: nasal polyps
# Assay: Two week treatment of nine patients with omeprazole, intranasal budesonide and oral deflazacort (Examples 2 to 10)
# Assay type: in vivo, human
# Conditions: two weeks, 20 mg omeprazole, 100 μg intranasal budesonide, 3 to 15 mg oral deflazacort
# Experimental: Nine patients, each with the conditions shown in the following Table 1, were treated during a two week period. The treatment consisted of 20 mg of omeprazole, 100 μg of intranasal budesonide and 3 to 15 mg of oral deflazacort (deflazacort was used in such a small quantity to ensure the patients' compliance).
structure (smiles),measurement,setting,value
COc1ccc2[nH]c([S+]([O-])Cc3ncc(C)c(OC)c3C)nc2c1 (stereo not drawn) [omeprazole],Result,patient with Nasal Polyposis and aspirin intolerance (Example 9),Positive effect
same,Result,patients with Nasal Polyposis (Examples 5-8),Positive effect; also recorded: Long term benefit
same,Result,patients with Widal's Syndrome (Examples 2-4),Temporary benefit; also recorded: Positive effect
